Experimental data taken from patent publication US11213032B2, “Insecticidal compounds” (SYNGENTA PARTICIPATIONS AG, priority 2017, dated 2022).

Legend:
Assay type in all cases: in vivo
[1] = system: Diabrotica balteata (Corn Root Worm); experiment: Diabrotica balteata (corn root worm) on maize sprouts, spray; conditions: 96 h, L2 larvae, 4 days after infestation, read-out: effect in at least one of the two categories (mortality or growth inhibition)
Procedure: Diabrotica balteata (Corn Root Worm)
Maize sprouts placed onto an agar layer in 24-well microtiter plates were treated with aqueous test solutions prepared from 10,000 ppm DMSO stock solutions by spraying. After drying, the plates were infested with L2 larvae (6 to 10 per well). The samples were assessed for mortality and growth inhibition in comparison to untreated samples 4 days after infestation.

[2] = system: Euschistus heros (Neotropical Brown Stink Bug); experiment: Euschistus heros (neotropical brown stink bug) on soybean leaves, spray; conditions: 120 h, N2 nymphs, 5 days after infestation, read-out: effect in at least one of the two categories (mortality or growth inhibition)
Procedure: Euschistus heros (Neotropical Brown Stink Bug)
Soybean leaves on agar in 24-well microtiter plates were sprayed with aqueous test solutions prepared from 10,000 ppm DMSO stock solutions. After drying the leaves were infested with N2 nymphs. The samples were assessed for mortality and growth inhibition in comparison to untreated samples 5 days after infestation.

[3] = system: Myzus persicae (Green Peach Aphid); experiment: Myzus persicae (green peach aphid) feeding/contact activity; conditions: 144 h, mixed ages, 6 days after infestation
Procedure: Myzus persicae (Green Peach Aphid): Feeding/Contact Activity
(§1) Sunflower leaf discs were placed onto agar in a 24-well microtiter plate and sprayed with aqueous test solutions prepared from 10,000 ppm DMSO stock solutions. After drying, the leaf discs were infested with an aphid population of mixed ages. The samples were assessed for mortality 6 days after infestation.

[4] = system: Plutella xylostella (Diamond Back Moth); experiment: Plutella xylostella (diamond back moth) feeding/contact activity; conditions: 120 h, L2 larvae, artificial diet, 5 days after infestation
Procedure: Plutella xylostella (Diamond Back Moth): Feeding/Contact Activity
24-well microtiter plates with artificial diet were treated with aqueous test solutions prepared from 10,000 ppm DMSO stock solutions by pipetting. After drying, the plates were infested with L2 larvae (10 to 15 per well). The samples were assessed for mortality 5 days after infestation.

[5] = system: Spodoptera littoralis (Egyptian Cotton Leaf Worm); experiment: Spodoptera littoralis (Egyptian cotton leaf worm) on cotton leaf discs; conditions: foliar, 72 h, L1 larvae, 3 days after infestation
Procedure: Spodoptera littoralis (Egyptian Cotton Leaf Worm)
Cotton leaf discs were placed onto agar in 24-well microtiter plates and sprayed with aqueous test solutions prepared from 10,000 ppm DMSO stock solutions. After drying the leaf discs were infested with five L1 larvae. The samples were assessed for mortality, anti-feeding effect, and growth inhibition in comparison to untreated samples 3 days after infestation. Control of Spodoptera littoralis by a test sample is given when at least one of the categories mortality, anti-feedant effect, and growth inhibition is higher than the untreated sample.

[6] = system: Tetranychus urticae (Two-Spotted Spider Mite); experiment: whole plant or invertebrate; conditions: 192 h
Procedure: Tetranychus urticae (Two-Spotted Spider Mite): Feeding/Contact Activity
Bean leaf discs on agar in 24-well microtiter plates were sprayed with aqueous test solutions prepared from 10,000 ppm DMSO stock solutions. After drying the leaf discs were infested with a mite population of mixed ages. The samples were assessed for mortality on mixed population (mobile stages) 8 days after infestation.

[7] = system: Thrips tabaci (Onion thrips); experiment: Thrips tabaci (onion thrips) feeding/contact activity; conditions: 144 h, mixed ages, 6 days after infestation
Procedure: Thrips tabaci (Onion thrips) Feeding/Contact Activity
as §1, with “on” for “onto”, “in” for “in a”, “plates” for “plate”, “drying” for “drying,”, “a thrips” for “an aphid”

CCOC1=NOC(NC(=O)c2ccc(C3=NS[C@](c4cc(Cl)cc(Cl)c4)(C(F)(F)F)C3)cc2C)C1 (stereo partly drawn) [Compound A01, 4-[(5R)-5-(3,5-dichlorophenyl)-5-(trifluoromethyl)-4H-isothiazol-3-yl]-N-(3-ethoxy-4,5-dihydroisoxazol-5-yl)-2-methyl-benzamide]
≥ 80%: percent effect (mortality or growth inhibition) at 200 ppm [1] | percent effect (mortality or growth inhibition) at 200 ppm [2] | mortality at 200 ppm [3] | mortality at 200 ppm [4] | percent control (mortality, anti-feedant effect or growth inhibition) at 200 ppm [5] | mortality at 200 ppm [6] | mortality at 200 ppm [7]

CCOC1=NOC(NC(=O)c2ccc(N3CCC(c4cc(Cl)cc(Cl)c4)(C(F)(F)F)C3)cc2C)C1 (stereo not shown) [Compound A02, 4-[3-(3,5-dichlorophenyl)-3-(trifluoromethyl)pyrrolidin-1-yl]-N-(3-ethoxy-4,5-dihydroisoxazol-5-yl)-2-methyl-benzamide]
≥ 80%: percent effect (mortality or growth inhibition) at 200 ppm [1] | percent effect (mortality or growth inhibition) at 200 ppm [2] | mortality at 200 ppm [4] | percent control (mortality, anti-feedant effect or growth inhibition) at 200 ppm [5] | mortality at 200 ppm [6] | mortality at 200 ppm [7]
